Measured values from patent publication EP0334956A1, “HEMOLYSIS INHIBITOR AND MEDICAL RESIN COMPOSITION, MEDICAL IMPLEMENT, AND BLOOD-PRESERVING FLUID CONTAINING THE SAME” (KAO CORPORATION, priority 1986, dated 1988).
Like-named read-outs stand apart in the source and are kept apart here.

Columns and labels:
[1] = system: human platelet rich plasma; format: cell-based
Method: To determine the effects brought about on platelets by the compounds used in Examples 16 through 18, the test for recovery of function of platelets was carried out by the following procedure.
First, a solution of 20,000 ppm of isopropyl decyl maleate in methanol (Example 19), a solution of 20,000 ppm of isopropyl tetradecyl maleate in methanol (Example 20), a solution of 20,000 ppm of isopropyl decyl itaconate in methanol (Example 21), a solution of 20,000 ppm of di-2-ethylhexyl maleate in methanol (Control 24), a solution of 20,000 ppm of di-2-ethylhexyl phthalate in methanol (Control 25), a solution of 20,000 ppm of dinormal decyl phthalate in methanol (Control 26), and methanol containing no added compound (blank) were prepared. These solutions were severally added to human […] in a fixed amount of 1/100. […]
To determine the effects exerted on platelets by 2-ethylhexyl isostearate used in Example 24 and 2-ethylhexyl 2-ethylhexanoate used in Example 25, a test for the recovery of function of platelets was carried out by following the procedure of Examples 19 through 21. […] The procedure of Examples 19 through 21 was repeated on these solutions to determined maximum capacity for aggregation with respect to 50µM ADP and 10µg/ml collagen in the presence of 0.2 mg of fibrinogen per ml.

[2] = system: erythrocytes; settings: dissolving from flexible vinyl chloride resin container into preserved blood; Blood (1984); cited from earlier work
[3] = system: human platelet rich plasma; assay: Platelet aggregation in platelet rich plasma (Aggrecoder); format: cell-based; settings: for activity at 400 µM: Homo sapiens, Platelet, 2 h, 40 mM methanol solution added in 1/100, room temperature 2 hours, relative to blank
Method: A 40 mM methanol solution of isopropyl isotridecyl maleate (Example 13), a 40 mM methanol solution of glycerine-l-butyl-3-isostearyl ether (Example 14), a 40 mM methanol solution of isopropyl isolaurate (Example 15), a 40 mM methanol solution of di-2-ethylhexyl phthalate (Control 19) and methanol containing no added compound (Control 20) were severally added to a human platelet rich plasma (count of platelets about 300,000/mm ) in a fixed amount of 1/100, left standing at room temperature for 2 hours, and tested for platelet aggregation by the use of an instrument (product of Kyoto Daiichikagaku K.K. marketed under "Aggrecoder").
The percentage of transmittance of light through the solution of platelet rich plasma containing a given sample to the maximum transmittance of light through the same solution of platelet rich plasma not containing the sample (blank) was reported as the ratio of aggregation of the sample. As aggregation inducers, 5 µM ADP (adenosine diphosphoric acid) and 5 ug/ml collagen were used.

[4] = system: human concentrated red cells; assay: Hemolysis of stored CRC, reagent added as Tween 80/physiological saline emulsion; plasma hemoglobin by TMB method; format: cell-based; settings: final concentration 0.5 mM, emulsion, 4°C, 4 weeks
Method: Isopropyl isotridecyl maleate was added to a 2000ug/ml polyoxyethylene monooleate (reagent-grade product of Wako Junyaku K.K. marketed under trademark designation of "Tween 80")/physiological saline mixed solution in such an amount to be contained therein in a final concentration of 4mM. A 0.2ml aliquot of the resultant emulsion was added to a human concentrated red cells (hereinafter referred to as "CRC") adjusted in advance to a hematocrit value of about 70% so as to be contained therein in a final concentration indicated in Table 1. The resulting liquid was placed in a stoppered polypropylene tube and left standing at rest at 4°C for 4 weeks. At the end of this standing, it was tested for plasma hemoglobin concentration by the TMB method (Clin. Chem., 23, 749-(1977)).
An emulsion was prepared by following the procedure of Example 1, except that isopropyl decyl maleate was used in place of isopropyl-isotridecyl maleate. A CRC sample incorporating the emulsion was left standing and thereafter tested for plasma hemoglobin concentration.
Emulsions were prepared by following the procedure of Excample 1, except that di-2-ethylhexyl phthalate (Control 1) and diisopropyl maleate, a carboxylic ester compound deviating from the scope of the present invention (Control 2) were respectively used in place of isopropyl isotridecyl maleate. CRC samples severally incorporating the emulsions were left standing and, thereafter, tested for plasma hemoglobin concentration.
Glycerine-l-butyl-3-isostearyl ether was added to a 2000 ug/ml polyoxyethylene monooleate (regent-grade product of Wako Junyaku K.K. marketed under trademark designation of "Tween 80")/ physiological saline mixed solution so as to be contained therein in a final concentration of 4 mM. A 0.2ml aliquot of the resultant emulsion was added to CRC adjusted in advance to a hematocrit value of about 70% so as to be contained therein in a final concentration indicated in Table 3. The resultant liquid was placed in a stoppered polypropylene tube and left standing at 4°C for 4 weeks. Thereafter, it was tested for plasma hemoglobin concentration by following the procedure of Example 1.
An emulsion was prepared by following the procedure of Example 5, except that glycerine-1,3-dioctyl ether was used in place of glycerine- l-butyl-3-isostearyl ether. A CRC sample incorporating the resultant emulsion was left standing and, thereafter, tested for plasma hemoglobin concentration. Controls 7 and 8
Emulsions were prepared by following the procedure of Example 5, except that di-2-ethylhexyl phthalate (Control 7) and glycerine monooctyl ether, an ether compound deviating from the scope of the present invention, (Control 8) were respectively used in place of glycerine-l-butyl-3-isostearyl ether. CRC samples incorporating the emulsions were left standing and, thereafter, tested for plasma hemoglobin concentration.
Isopropyl isolaurate was dispersed in a 2000 ug/ml poloxyethylene monooleate (reagent-grade product of Wako Junyaku K.K. marketed under trademark designation of "Tween 80")/physiological saline mixed solution so as to be contained therein in a concentration of 4 mM. A 0.2-ml aliquot of the resultant emulsion was added to CRC adjusted in advance to a hematocrit value of about 70% so as to be contained therein in a final concentration indicated in Table 5. The resultant liquid was placed in a stoppered polypropylene tube and left standing at 4°C for 4 weeks. Thereafter, it was tested for plasma hemoglobin concentration by following the procedure of Example 1.
An emulsion was prepared by following the procedure of Example 9, except that 2-ethylhexyl isostearate was used in place of isopropyl isolaurate. A CRC sample incorporating the resultant emulsion was left standing and, thereafter, tested for plasma hemoglobin concentration.

[5] = system: platelets; settings: Jouranl of Japan blood Transfusion Society, 28(3) 282 (1981); cited from earlier work

SMILES	action on recovery of ability of platelet aggregation (in words) [1]	effect on hemolysis of erythrocytes (in words) [2]	activity at 400 µM ([3]; read-out: Ratio of platelet aggregation, aggregation inducer 5 µM ADP)	activity at 400 µM ([3]; read-out: Ratio of platelet aggregation, aggregation inducer 5 µg/ml collagen)	effect on aggregating ability of platelets (in words) ([3]; summary of Table 7)	Hemoglobin concentration in plasma ([4]; Table 1)	Hemoglobin concentration in plasma ([4]; Table 3)	Hemoglobin concentration in plasma ([4]; Table 5)	effect on aggregating ability of platelets (in words) [5]
CCCCC(CC)COC(=O)CCCCCCCCCCCCCCC(C)C (stereo not shown) [2-ethylhexyl isostearate]	produced no discernible action to curb recovery of the ability of platelet aggregation	–	–	–	–	–	–	–	–
CCCCC(CC)COC(=O)c1ccccc1C(=O)OCC(CC)CCCC (stereo not shown) [Di-2-ethylhexyl phthalate, reference compound]	–	serves to hinder the hemolysis of erythrocytes	92.1%	89.6%	produced a discernible effect of curbing the recovery of the aggregating ability of platelets	41 Mg/ml	62 mg/mL	35 mg/mL	hinders the aggregating ability of platelets
CCCCC(CC)COC(=O)C(CC)CCCC (stereo not shown) [2-ethylhexyl 2-ethylhexanoate]	produced no discernible action to curb recovery of the ability of platelet aggregation	–	–	–	–	–	–	–	–
